Reference: US20120178089A1, “MATERIALS AND METHODS FOR THE IDENTIFICATION OF DRUG-RESISTANT CANCERS AND TREATMENT OF SAME” (priority 2009, published 2012)
Entries after “also recorded” stand apart in the source; their conditions may differ. Blank lines part the entries; values can stand above or below the compound they belong to.

Assays:
[1] = biological target: Purified recombinant NEK2 kinase protein (Homo sapiens, UniProt P51955); conditions: read-out: IC50 (NEK2 kinase activity, titration assays); titration of screening hits
Chain of Purified recombinant NEK2 kinase protein (P51955 whole entry): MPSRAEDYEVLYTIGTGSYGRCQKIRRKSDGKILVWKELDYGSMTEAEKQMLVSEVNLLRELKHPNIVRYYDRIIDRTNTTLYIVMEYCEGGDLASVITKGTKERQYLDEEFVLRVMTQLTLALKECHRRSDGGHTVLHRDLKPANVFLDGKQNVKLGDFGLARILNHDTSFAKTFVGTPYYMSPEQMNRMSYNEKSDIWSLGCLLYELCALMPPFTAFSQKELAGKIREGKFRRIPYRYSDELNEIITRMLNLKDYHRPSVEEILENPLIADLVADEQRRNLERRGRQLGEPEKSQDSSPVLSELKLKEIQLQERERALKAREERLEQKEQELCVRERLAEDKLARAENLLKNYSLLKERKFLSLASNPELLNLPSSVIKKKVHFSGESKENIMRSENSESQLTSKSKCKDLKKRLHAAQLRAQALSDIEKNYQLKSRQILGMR
Description: NEK2 kinase activity assay. Purified recombinant NEK2 kinase protein (Cell Signaling Technology, Beverley, Mass.), was added to 96 well plates in the appropriate reaction buffer. Compounds were added to each well to a final concentration of 5 μM. Reaction mixtures were incubated for 15 minutes. The Kinase-Glo Luminescent Kinase Assay kit (Promega, Madison, Wis.) was used to determine the remaining ATP, which is inversely related to kinase activity.
By NEK2 kinase activity assay, we screened a Kinase Inhibitor Library from Calbiochem Inc. (San Diego, Calif.).

[2] = test system: NEK2 expression in MM, lung cancer and breast cancer cells; test: Inhibition of NEK2 expression in cancer cell lines (western blots); type: cell-based; conditions: especially NEK2 over-expressed
Description: FIG. 7a is a graph showing the results of screening a Kinase Inhibitor Library.
Western Blots. Western blots were performed to examine the protein levels in MM cells as previously described in Xiong, W., et al. Blood 112, 4235-4246 (2008) and Zhan, F., et al. Blood 109, 4995-5001 (2007). NEK2 antibodies were purchased from BD Biosciences Pharmingen (San Jose, Calif.); and all other primary antibodies were purchased from Cell Signaling Technology (Beverly, Mass.). β-actin was used to normalize the amount of protein in each sample.

[3] = test system: NEK2-transfected OCI-MY5, H1299 and MCF7 cells and EV control cells; test: Cytotoxic effects of KP372-1 on NEK2-overexpressing cell lines; type: cell-based; conditions: 5 μM, 5 days
Description: Cell proliferation assay. Briefly, cancer cells transfected with NEK2 cDNA or NEK2 shRNA and their relative controls of empty vector or Scrambled shRNA were seeded in 12-well plates at 0.2×10^6 per well. All tests were set in triplicate or quadruplicate. Cultured cells were counted with a hemocytometer to evaluate cellular proliferation, and dead cells were determined by trypan blue staining, from which dead-cell fraction was calculated. Cell proliferation assays were done at various time points for at least one week after infection or addition doxycycline one day.
We then determined the cytotoxic effects of this compound KP372-1 on the NEK2-overexpressing myeloma cell lines. Cultures of cell lines transfected with a vector for overexpression of NEK2 (myeloma OCI-MY5, a lung cancer cell line H1299, and a breast cancer cell line MCF7) were treated with 5 μM KP372-1 for 5 days. Cell proliferation and cell death were evaluated. Empty vector (EV)-transfected cancer cells with or without treatment were used as controls.

[4] = test system: KMS28PE and ARP1 cells, bortezomib-resistant (vel-R) and bortezomib-sensitive; test: KP372-1 treatment of bortezomib-resistant and bortezomib-sensitive myeloma cell lines; type: cell-based
Description: FIGS. 9a-9d are a series of graphs showing the treatment with KP372-1 overcomes drug-resistance in cancer cells. The myeloma cell lines KMS28PE (A & B) and ARP1 (C & D) including both bortezomib-sensitive and bortezomib-resistant (vel-R) were treated with KP372-1 at concentrations of 1 μM and 5 μM for 5 days.
To determine whether the NEK2 inhibitor KP372-1 can overcome drug resistance in KMS28PE- and ARP1-bortezomib resistant myeloma cell lines, we treated with KP372-1 at concentrations of 1 μM and 5 μM.

[5] = test system: 5TGM1 multiple myeloma cells; test: Efficacy of KP372-1 in a mouse model of multiple myeloma; type: in vivo, C57BL/KaLwRij mice; conditions: for tumor burden (tumor volumes): FIG. 10b
Description: Efficacy of KP372-1 in a mouse model of multiple myeloma. C57BL/KaLwRij mice (n=5 in each group) were injected with 1×10^6 5TGM1 cells through their tail vein. Seven days following tumor inoculation, tumor-bearing mice were treated with KP372-1, bortezomib or a combination of KP372-1 with bortezomib.
KP372-1 (NI-2) was used to treat 8 mice in each study group including four groups with single agent or combination with bortezomib (velcade). 1×10^6 5TGM1 multiple myeloma cells (in 100 μL PBS) were injected into each mouse through the tail vein and tumors were allowed to grow for 1 week. Treatment with bortezomib (1 mg/kg, 2 times/week, sc), NI-2 (0.8 mg/kg 3 times/week, sc), and the combination of KP372-1 (NI-2) with bortezomib (velcade) was performed 1 week after injection.
We also developed a bortezomib-resistant 5TGM1 line (5TGM1-DR) using a stepwise increase of the bortezomib concentration in the cultures. […] We examined the effects of KP372-1 treatment on the growth of 5TGM1 myeloma mouse. KP372-1 was given to 8 mice in each of the five groups, including single agent or combination treatment with bortezomib: 5TGM1-WT, 5TGM1-DR, 5TGM1-DR+KP372-1 (0.8 mg/kg, 3 times/week, s.c), 5TGM1-DR+bortezomib (1 mg/kg, 2 times/week, s.c), 5TGM1-DR+bortezomib+KP372-1.

[6] = test system: NEK2-transfected ARP1, KMS28PE, H1299, MCF7, and MDA231 cells; test: Treatment of NEK2-overexpressing cancer cells with chemotherapeutic drugs; type: cell-based; conditions: 48 hours; for growth inhibition in NEK2-transfected cells compared with EV-transfected controls: P<0.05; for cell death in NEK2-transfected cells compared with EV-transfected controls: P<0.05, data not shown
Description: Treatment of NEK2-overexpressing MM cells with chemotherapeutic drugs. To determine the role of NEK2 in cancer drug-resistance, ARK, KMS28PE, OCI-MY5, H1299, and MCF7 cell lines were transfected with NEK2-cDNA to overexpress NEK2 by lentivirus expression vector system. 1×10^6 cells were treated with bortezomib at 5 nM for 48 hours in the cultures. Cell proliferation was evaluated by cell counting with a hemocytometer, and dead cells were determined by trypan blue staining, from which dead-cell fraction was calculated. Untreated cells and empty-vector (EV)-transfected cells with or without drug-treatment were used as controls.
To determine whether NEK2 over-expression is sufficient to confer drug-resistance in cancer cells, NEK2-transfected ARP1, KMS28PE, H1299, MCF7, and MDA231 cells were then treated with bortezomib at the dose of 4, 8, and 16 nM bortezomib for 48 hours and cell death was evaluated. EV-transfected cells with or without bortezomib served as controls.

RPMI8226 cells = test: Bortezomib treatment of bortezomib-resistant and parental RPMI8226 cells; type: cell-based; conditions: Homo sapiens
Text: (§1) To test the role of NEK2 in promoting cell growth, we over-expressed NEK2 in normal fibroblasts BJ, the MM cell lines ARP1, KMS28PE, and OCI-MY5, the lung cancer cell line H1299, and breast cancer cell line MDA231 by lentivirus-mediated NEK2-cDNA transfection (FIG. 2a). […] We subsequently examined the role of NEK2 in myeloma drug-resistance. We developed 2 bortezomib-resistant MM cell lines, RPMI 8226 and ARP1, by a stepwise increase of the bortezomib concentration in cultures.

ARP1 cells = test: Bortezomib treatment of bortezomib-resistant and parental ARP1 cells; type: cell-based
Text: as §1

5TGM1 cells = test: Bortezomib treatment of bortezomib-resistant and wild-type 5TGM1 cells; type: cell-based
[7] = NEK2-transfected and EV control cells
[8] = KP372-1 1 μM and 5 μM, 5 days, both vel-R and sensitive lines

SMILES: O=C1c2ccccc2-c2nc3nnnn3nc21.O=C1c2ccccc2-c2nn3nnnc3nc21 [KP372-1]
IC50 [1]: 67 nM | NEK2 expression [2]: significantly inhibits NEK2 expression | NEK2 expression ([2]; listed as NI-2): inhibits NEK2 expression | anti-proliferative and apoptotic activity, NEK2-transfected versus EV control cells [3]: stronger anti-proliferative and apoptotic activity in the NEK2-transfected cells than the EV control cells | cell death [3, 7]: induced significantly cell death; also recorded: induced cell growth inhibition and death | growth inhibition [3, 7]: induced significantly cell death and growth inhibition | cell death [4, 8]: cell death | growth inhibition [4, 8]: significant growth inhibition | tumor burden (tumor volumes) ([5]; P<0.05): reduced tumor burden | mouse survival, 5TGM1-DR mice ([5]; KP372-1 0.8 mg/kg, 3 times/week, s.c, P<0.01): able to overcome drug resistance and extend mouse survival | growth of 5TGM1 tumors compared with untreated control ([5]; NI-2 0.8 mg/kg 3 times/week sc, bortezomib 1 mg/kg 2 times/week sc, start 1 week after injection, P<0.05): significantly inhibited the growth of 5TGM1 tumors

SMILES: COc1cccc2c1C(=O)c1c(O)c3c(c(O)c1C2=O)C[C@@](O)(C(=O)CO)C[C@@H]3O[C@H]1C[C@H](N)[C@H](O)[C@H](C)O1 [doxorubicin]
growth inhibition in NEK2-transfected cells compared with EV-transfected controls ([6]; 100 nM): significantly less growth inhibition | cell death in NEK2-transfected cells compared with EV-transfected controls ([6]; 100 nM): significantly less

IC50 (5TGM1 cells; 5TGM1, 5TGM1-R (bortezomib-resistant)): 250 nM | IC50 (5TGM1 cells; 5TGM1, wild-type 5TGM1 cells (5TGM1-WT)): 5.26 nM
SMILES: CC(C)C[C@H](NC(=O)[C@H](Cc1ccccc1)NC(=O)c1cnccn1)B(O)O [bortezomib]
IC50 (RPMI8226 cells; RPMI-8226, parental RPMI8226 cells): 4.75 nM | IC50 (RPMI8226 cells; bortezomib-resistant RPMI8226 cells): 250 nM | IC50 (ARP1 cells; ARP-1, bortezomib-resistant ARP1 cells): 25.8 nM | IC50 (ARP1 cells; ARP-1, parental ARP1 cells): 7.47 nM | growth inhibition in NEK2-transfected cells compared with EV-transfected controls ([6]; 8 nM): significantly less growth inhibition | cell death in drug-resistant cells compared with parental controls ([4]; bortezomib treatment): significantly less growth inhibition and cell death | growth inhibition in drug-resistant cells compared with parental controls ([4]; bortezomib treatment): significantly less growth inhibition | tumor burden (tumor volumes) ([5]; P<0.05): reduced tumor burden

SMILES: COc1cc([C@@H]2c3cc4c(cc3[C@@H](O[C@@H]3O[C@@H]5CO[C@@H](C)O[C@H]5[C@H](O)[C@H]3O)[C@H]3COC(=O)[C@H]23)OCO4)cc(OC)c1O [etoposide]
growth inhibition in NEK2-transfected cells compared with EV-transfected controls ([6]; 100 nM): significantly less growth inhibition | cell death in NEK2-transfected cells compared with EV-transfected controls ([6]; 100 nM): significantly less
